# Test results from patent US12686690B2, “Macrocyclic urea orexin receptor agonists” (Merck Sharp & Dohme LLC, priority 2020, dated 2026).
# Target: T1, hOX2R (Homo sapiens, UniProt O43614)
# T1 construct: expressed in transfected cells; host or cells: CHO cells (G418 selection)
# T1 sequence (O43614 1-444): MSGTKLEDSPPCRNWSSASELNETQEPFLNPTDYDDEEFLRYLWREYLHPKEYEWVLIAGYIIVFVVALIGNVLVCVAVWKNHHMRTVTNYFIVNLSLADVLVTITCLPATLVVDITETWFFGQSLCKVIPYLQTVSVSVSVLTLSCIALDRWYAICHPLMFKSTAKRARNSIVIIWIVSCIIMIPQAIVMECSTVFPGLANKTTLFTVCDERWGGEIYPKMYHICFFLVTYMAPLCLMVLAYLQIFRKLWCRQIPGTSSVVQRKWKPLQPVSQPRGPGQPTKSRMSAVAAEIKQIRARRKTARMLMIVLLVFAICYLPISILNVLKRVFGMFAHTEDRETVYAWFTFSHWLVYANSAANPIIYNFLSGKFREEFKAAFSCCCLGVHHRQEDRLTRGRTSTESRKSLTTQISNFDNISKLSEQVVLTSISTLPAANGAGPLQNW
# Experiment: hOX2R IPone assay (orexin receptor agonism)
# Format: cell-based
# Conditions: IPone readout; for hOX2R_Ipone max %act: maximal activation; for EC50: orexin receptor agonist, read-out: hOX2R_IPone EC50
Compound,hOX2R_Ipone max %act,EC50
"CCN1C(=O)NC(C(O)CC(F)(F)F)CCCCCOc2nc(cn3ncnc23)-c2cc(ncc2OC)C1C (single isomer, unassigned) [Example 133]",102.1%,4.75 nM
"CCC1CCCCCOc2nc(cn3ccnc23)-c2cc(ncc2OC)[C@@H](C)N(CC)C(=O)N1 (single isomer, unassigned) [Example 52A]",97%,548 nM
"CCN1C(=O)N[C@@H](CCC(C)(F)F)CCOCCOc2nc(cn3ncnc23)-c2cc(ncc2C)[C@H]1C [Example 129, (3R,7S,E)-7-(3,3-difluorobutyl)-4-ethyl-25,3-dimethyl-10,13-dioxa-4,6-diaza-1(6,8)-[1,2,4]triazolo[1,5-a]pyrazina-2(4,2)-pyridinacyclotridecaphan-5-one]",100.2%,1.49 nM
"CCN1C(=O)N[C@@H](CCC(F)(F)F)CCCCCOc2cc(cn3ccnc23)-c2nc(ccc2OC)[C@H]1C [Example 50, (3R,7R,E)-4-ethyl-23-methoxy-3-methyl-7-(3,3,3-trifluoropropyl)-13-oxa-4,6-diaza-1(6,8)-imidazo[1,2-a]pyridina-2(2,6)-pyridinacyclotridecaphan-5-one]",98.7%,0.8 nM
"CCN1C(=O)N[C@@H](CCC(C)(F)F)CCCCCOc2nc(cn3ccnc23)-c2ccnc(c2)[C@H]1C [Example 84, (12R,16R)-16-(3,3-difluorobutyl)-13-ethyl-12-methyl-12, 13,16,17,18,19,20,21-octahydro-6,23-(azeno)-11,7-(metheno)imidazo[2,1-c][1,4,10,13,15] oxatetraazacycloheni-cosin-14(15H)-one]",99.1%,1.5 nM
"CCN1C(=O)N[C@@H](CCC(F)(F)F)CCCCCOc2cc(cc3ccnn23)-c2nc(cnc2OC)C1C (single isomer, unassigned) [Example 80A]",98.9%,370 nM
"CCN1C(=O)NC(CC2CC2)CCCCCOc2nc(cn3ccnc23)-c2cc(ncc2OC)[C@H]1C (single isomer, unassigned) [Example 55B]",101.2%,0.6 nM
"CCN1C(=O)N[C@@H](CCC(F)(F)F)CCCCCOc2nc(cn3ccnc23)-c2ccnc(c2)[C@@H]1C [Example 30, (12S,16R)-13-ethyl-12-methyl-16-(3,3,3-trifluoropropyl)-12,13,16,17,18, 19,20,21-octa-hydro-6,23-(azeno)-11,7-(metheno)imidazo [2,1-c][1,4,10, 13,15]oxatetra-azacyclohenicosin-14(15H)-one]",98.5%,51.1 nM
"CCN1C(=O)N[C@@H](CCC(F)(F)F)CCCCCOc2nc(cn3ccnc23)C2=CN=C(S2)C1C (stereo partly drawn) [Example 95, (15R)-12-ethyl-11-methyl-15-(3,3,3-trifluoropropyl)-11,12,15,16,17,18,19, 20-octahydro-6,22-(azeno)-7,10-epithioimidazo[2,1-c][1,4,9,12,14]oxatet-raazacycloicosin-13(14H)-one]",99.78%,25.4 nM
"CCN1C(=O)N[C@@H](CCC(F)(F)F)CCCCOc2nc(cn3cc(C)nc23)-c2cc(ncc2OC)C1C(F)(F)F (single isomer, unassigned) [Example 36A]",101%,64 nM
"CCN1C(=O)NC(CCC(F)(F)F)C(C)/C=C\COc2nc(cn3ccnc23)-c2cccc(c2)[C@H]1C (single isomer, unassigned) [Example 41C]",98.9%,23.4 nM
"CCN1C(=O)NCCCCCOc2nc(cn3ccnc23)-c2cccc(c2)[C@H]1C [Example 49, (12R)-13-ethyl-12-methyl-12,13,15,16,17,18,19,20-octahydro-14H-6,22-(azeno)-11,7-(metheno)imidazo[2,1-c][1,4,13,15]oxatriaza-cycloicosin-14-one]",74.7%,42 nM
"CCN1C(=O)NC(C(C)OC)CCCCCOc2nc(cn3ccnc23)-c2cc(ncc2OC)[C@H]1C (stereo partly drawn) [Example 191, (3R,E)-4-ethyl-25-methoxy-7-(1-methoxyethyl)-3-methyl-13-oxa-4,6-diaza-1(6,8)-imidazo[1,2-a]pyrazina-2(4,2)-pyridinacyclotridecaphan-5-one]",102.3%,1.73 nM
"CCN1C(=O)N[C@@H](CCC(F)(F)F)CCCCCOc2nc(cn3ccnc23)-c2cc(cnc2OC)[C@H]1C [Example 28, (3R,7R,E)-4-ethyl-22-methoxy-3-methyl-7-(3,3,3-trifluoropropyl)-13-oxa-4,6-diaza-1(6,8)-imidazo[1,2-a]pyrazina-2(3,5)-pyridinacyclotridecaphan-5-one]",102.2%,0.9 nM
"CCN1C(=O)N[C@H](C(F)(F)F)CCCCCOc2nc(cn3ccnc23)-c2cc(ncc2OC)[C@H]1C [Example 115, (12R,16S)-13-ethyl-8-methoxy-12-methyl-16-(trifluoromethyl)-12,13,16,17,18,19,20,21-octahydro-6,23-(azeno)-11,7-(metheno)imidazo[2,1-c][1,4,10,13,15]oxatetraazacyclohenicosin-14(15H)-one]",97.2%,868 nM
"CCN1C(=O)N[C@@H](CCC(F)(F)F)CCCCCOc2nc(cn3ccnc23)C2=NC=C(S2)C1C (single isomer, unassigned) [Example 94A]",97.9%,167 nM
"CCN1C(=O)NC(CC(C)(F)F)CCCCCOc2cn3ccnc3c(n2)-c2cc(ncc2OC)C1C [Example 151, (3R,7R,E)-7-(2,2-difluoropropyl)-4-ethyl-25-methoxy-3-methyl-13-oxa-4,6-diaza-1(6,8)-imidazo[1,2-a]pyrazina-2(4,2)-pyridinacyclotridecaphan-5-one]",108.6%,0.51 nM
"CCN1C(=O)NC(c2ncnn2C)CCCCCOc2nc(cn3ccnc23)-c2cc(ncc2OC)[C@H]1C (stereo partly drawn) [Example 219, (3R,E)-4-ethyl-2^5-methoxy-3-methyl-7-(1-methyl-1H-1,2,4-triazol-5-yl)-13-oxa-4,6-diaza-1(6,8)-imidazo[1,2-a]pyrazina-2(4,2)-pyridinacyclotridecaphan-5-one]",102.6%,37.5 nM
"CCN1C(=O)N[C@@H](CCC(F)(F)F)CCCCCOc2nc(cn3c(C)cnc23)-c2cc(nc3ccoc23)C1C (single isomer, unassigned) [Example 76B]",100.4%,3.4 nM
"CCN1C(=O)N[C@@H](CCC(F)(F)F)CCOCCOc2cc(cn3ncnc23)-c2cc(ncc2OC)[C@H]1C [Example 150, (3R,7S,E)-4-ethyl-25-methoxy-3-methyl-7-(3,3,3-trifluoropropyl)-10,13-dioxa-4,6-diaza-1(6,8)-[1,2,4]triazolo[1,5-a]pyridina-2(4,2)-pyridinacyclotridecaphan-5-one]",103%,2.43 nM
